Test results reported in patent US12643903B2, “Bifunctional compounds for degradation of EGFR and related methods of use” (BeiGene, Ltd., priority 2020, dated 2026).

Tests used:
Assay type in all cases: cell-based
Conditions in all cases: 16 h treatment, EGFR degradation by HTRF
[1] = molecular target: T1, EGFR (Homo sapiens, UniProt P00533, L858R/T790M); experiment: Cell Degradation 1: EGFR degradation in H1975 cells, HTRF assay
T1 construct: endogenous in cells; host or cells: H1975
Summary of the method: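 H1975 cells treated with compound for 16 h, lysed 1 h at room temperature. EGFR measured by HTRF after overnight antibody incubation (665/620 nm). DC50 from four-parameter logistic fit of percent inhibition against concentration.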

[2] = molecular target: T2, EGFR (Homo sapiens, UniProt P00533, DEL746-750); experiment: Cell Degradation 2: EGFR degradation in HCC827 cells, HTRF assay
T2 construct: endogenous in cells; host or cells: HCC827
Summary of the method: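 Compound-treated HCC827 cells were lysed after 16 h and EGFR measured by HTRF (337 nm excitation, 665/620 nm emission) after overnight antibody incubation at room temperature. DC50 came from a four-parameter fit of percent inhibition against compound concentration.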

[3] = system: EGFR DTC; experiment: Cell Degradation 3: EGFR degradation in BaF3 cells (DTC), HTRF assay
Summary of the method: (§1)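 BaF3 cells expressing EGFR (LTC triple mutant C797S/L858R/T790M or DTC) exposed to compounds for 16 h, 8 doses from 4-fold dilution, 0.2% DMSO. Residual EGFR quantified by HTRF in lysates (triple mutant lysate diluted 1:1); DC50 from four-parameter logistic fit.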

[4] = molecular target: T3, EGFR LTC (Homo sapiens, UniProt P00533, C797S/L858R/T790M); experiment: Cell Degradation 3: EGFR degradation in BaF3 cells (LTC), HTRF assay
T3 construct: expressed in transfected cells; host or cells: BaF3
Summary of the method: as §1

T3 sequence (P00533 25-1210 T790M/C797S/L858R): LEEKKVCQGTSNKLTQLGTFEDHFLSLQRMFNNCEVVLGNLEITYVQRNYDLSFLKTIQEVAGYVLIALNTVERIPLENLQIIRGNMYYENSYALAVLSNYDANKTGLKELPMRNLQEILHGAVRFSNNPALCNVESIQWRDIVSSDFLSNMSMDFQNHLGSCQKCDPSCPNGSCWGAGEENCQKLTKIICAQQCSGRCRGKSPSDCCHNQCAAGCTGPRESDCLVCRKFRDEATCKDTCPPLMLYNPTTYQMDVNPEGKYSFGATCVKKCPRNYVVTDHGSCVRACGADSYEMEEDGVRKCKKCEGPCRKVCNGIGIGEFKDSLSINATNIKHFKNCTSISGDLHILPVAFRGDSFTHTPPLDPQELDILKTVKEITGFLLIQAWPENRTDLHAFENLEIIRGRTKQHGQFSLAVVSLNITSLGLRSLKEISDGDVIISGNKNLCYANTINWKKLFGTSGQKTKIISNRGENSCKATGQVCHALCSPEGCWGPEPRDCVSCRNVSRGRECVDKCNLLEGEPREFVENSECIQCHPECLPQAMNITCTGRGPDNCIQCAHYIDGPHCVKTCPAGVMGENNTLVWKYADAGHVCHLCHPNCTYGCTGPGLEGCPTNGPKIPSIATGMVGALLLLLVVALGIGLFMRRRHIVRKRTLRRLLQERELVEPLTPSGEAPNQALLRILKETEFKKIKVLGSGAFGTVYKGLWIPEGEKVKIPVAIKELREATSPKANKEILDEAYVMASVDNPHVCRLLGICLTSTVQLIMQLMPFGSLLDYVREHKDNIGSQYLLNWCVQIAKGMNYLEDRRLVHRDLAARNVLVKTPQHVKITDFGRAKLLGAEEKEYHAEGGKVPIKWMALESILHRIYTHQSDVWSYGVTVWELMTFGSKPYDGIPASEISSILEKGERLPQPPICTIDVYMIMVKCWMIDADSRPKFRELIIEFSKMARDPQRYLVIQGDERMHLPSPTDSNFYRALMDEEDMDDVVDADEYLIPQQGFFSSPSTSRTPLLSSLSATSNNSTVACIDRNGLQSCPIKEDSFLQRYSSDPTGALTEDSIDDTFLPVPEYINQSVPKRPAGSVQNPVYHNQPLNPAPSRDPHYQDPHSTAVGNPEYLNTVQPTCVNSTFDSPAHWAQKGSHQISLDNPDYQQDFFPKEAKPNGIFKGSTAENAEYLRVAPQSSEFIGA
T1 sequence (P00533 25-1210 T790M/L858R): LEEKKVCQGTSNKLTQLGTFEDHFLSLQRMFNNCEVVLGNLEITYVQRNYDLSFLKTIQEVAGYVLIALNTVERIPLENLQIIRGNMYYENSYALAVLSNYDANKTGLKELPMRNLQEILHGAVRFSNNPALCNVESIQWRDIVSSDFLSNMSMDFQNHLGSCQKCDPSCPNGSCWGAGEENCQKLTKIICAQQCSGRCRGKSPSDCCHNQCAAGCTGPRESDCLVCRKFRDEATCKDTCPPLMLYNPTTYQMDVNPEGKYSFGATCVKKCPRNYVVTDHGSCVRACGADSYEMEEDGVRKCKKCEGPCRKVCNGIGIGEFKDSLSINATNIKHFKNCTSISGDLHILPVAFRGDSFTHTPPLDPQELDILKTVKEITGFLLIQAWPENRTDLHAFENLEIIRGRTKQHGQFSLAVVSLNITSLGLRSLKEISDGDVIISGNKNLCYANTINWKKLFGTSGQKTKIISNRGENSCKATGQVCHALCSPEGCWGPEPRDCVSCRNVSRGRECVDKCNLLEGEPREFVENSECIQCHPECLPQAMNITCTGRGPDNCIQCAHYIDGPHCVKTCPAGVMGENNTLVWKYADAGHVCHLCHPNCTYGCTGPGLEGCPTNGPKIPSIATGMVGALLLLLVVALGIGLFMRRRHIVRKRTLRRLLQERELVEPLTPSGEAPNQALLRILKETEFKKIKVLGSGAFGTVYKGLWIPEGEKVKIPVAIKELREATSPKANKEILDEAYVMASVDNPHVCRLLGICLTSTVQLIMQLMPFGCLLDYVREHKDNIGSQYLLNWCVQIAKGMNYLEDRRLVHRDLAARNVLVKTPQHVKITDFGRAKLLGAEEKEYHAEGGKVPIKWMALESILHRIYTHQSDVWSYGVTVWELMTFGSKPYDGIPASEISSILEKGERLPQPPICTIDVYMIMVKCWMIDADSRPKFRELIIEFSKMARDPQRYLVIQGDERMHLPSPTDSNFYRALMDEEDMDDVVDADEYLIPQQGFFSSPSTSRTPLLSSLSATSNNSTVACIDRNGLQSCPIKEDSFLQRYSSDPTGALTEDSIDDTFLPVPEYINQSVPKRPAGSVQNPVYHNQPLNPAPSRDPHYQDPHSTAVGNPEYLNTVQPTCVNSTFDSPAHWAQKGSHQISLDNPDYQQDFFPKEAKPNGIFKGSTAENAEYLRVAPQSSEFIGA
T2 sequence (P00533 with tags, fused parts or gaps DEL746-750): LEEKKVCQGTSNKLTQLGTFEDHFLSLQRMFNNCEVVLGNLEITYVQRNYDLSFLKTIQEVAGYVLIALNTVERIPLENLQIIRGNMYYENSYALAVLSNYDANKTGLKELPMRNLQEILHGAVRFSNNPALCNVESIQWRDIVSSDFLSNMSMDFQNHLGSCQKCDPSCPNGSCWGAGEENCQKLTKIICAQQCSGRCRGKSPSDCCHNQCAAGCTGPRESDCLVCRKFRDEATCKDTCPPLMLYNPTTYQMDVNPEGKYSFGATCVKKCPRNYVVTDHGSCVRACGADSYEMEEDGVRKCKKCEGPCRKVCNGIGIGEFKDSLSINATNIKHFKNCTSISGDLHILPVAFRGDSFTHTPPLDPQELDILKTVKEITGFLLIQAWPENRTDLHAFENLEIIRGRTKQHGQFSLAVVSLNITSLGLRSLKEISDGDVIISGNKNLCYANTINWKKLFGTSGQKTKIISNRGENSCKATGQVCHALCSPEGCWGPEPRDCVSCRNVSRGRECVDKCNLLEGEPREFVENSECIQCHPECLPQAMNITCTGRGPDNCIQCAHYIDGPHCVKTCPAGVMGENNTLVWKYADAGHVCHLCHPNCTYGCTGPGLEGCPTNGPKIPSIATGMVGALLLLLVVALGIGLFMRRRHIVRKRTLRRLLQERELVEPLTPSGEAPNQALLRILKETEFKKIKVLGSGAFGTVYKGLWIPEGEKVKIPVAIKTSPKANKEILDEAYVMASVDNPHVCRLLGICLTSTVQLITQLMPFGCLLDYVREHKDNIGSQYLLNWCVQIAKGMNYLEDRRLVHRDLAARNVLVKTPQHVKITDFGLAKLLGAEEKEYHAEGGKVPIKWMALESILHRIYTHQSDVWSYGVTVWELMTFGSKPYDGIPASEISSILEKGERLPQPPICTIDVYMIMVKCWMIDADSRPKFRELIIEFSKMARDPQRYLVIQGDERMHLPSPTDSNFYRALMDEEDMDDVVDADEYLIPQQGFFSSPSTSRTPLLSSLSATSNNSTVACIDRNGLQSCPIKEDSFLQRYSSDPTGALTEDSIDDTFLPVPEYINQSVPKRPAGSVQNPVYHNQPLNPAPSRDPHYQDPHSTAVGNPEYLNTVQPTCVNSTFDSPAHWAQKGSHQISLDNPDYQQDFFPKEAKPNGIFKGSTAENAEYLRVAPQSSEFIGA
T2 sequence (Q96SW2 whole entry partner): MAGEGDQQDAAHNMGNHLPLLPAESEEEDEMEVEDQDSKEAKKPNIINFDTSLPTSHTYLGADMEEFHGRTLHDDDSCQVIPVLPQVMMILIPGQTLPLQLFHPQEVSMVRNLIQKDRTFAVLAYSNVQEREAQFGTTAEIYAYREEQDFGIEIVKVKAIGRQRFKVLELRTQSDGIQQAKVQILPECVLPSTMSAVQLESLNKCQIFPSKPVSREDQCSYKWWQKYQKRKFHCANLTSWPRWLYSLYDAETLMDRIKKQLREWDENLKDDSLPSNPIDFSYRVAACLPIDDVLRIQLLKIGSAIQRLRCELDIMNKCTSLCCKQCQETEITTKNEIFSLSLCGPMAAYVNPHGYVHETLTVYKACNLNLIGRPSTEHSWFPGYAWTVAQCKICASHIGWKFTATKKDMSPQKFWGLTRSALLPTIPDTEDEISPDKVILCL

In the case of CS(=O)(=O)N1CCc2cccc(Nc3nc(Nc4ccc(N5CCC(N6CCN(CC7CN(c8ccc9c(c8)C(=O)N(C8CCC(=O)NC8=O)C9=O)C7)CC6)CC5)c(F)c4)ncc3Cl)c21 (stereo not drawn) [Example 76, 5-(3-((4-(1-(4-((5-chloro-4-((1-(methylsulfonyl)indolin-7-yl)amino)pyrimidin-2-yl)amino)-2-fluorophenyl)piperidin-4-yl)piperazin-1-yl)methyl)azetidin-1-yl)-2-(2,6-dioxopiperidin-3-yl)isoindoline-1,3-dione], the DC50 [1] is reported as 3.4 nM, the DC50 [2] is reported as 3.3 nM and the DC50 [3] is reported as 4.8 nM. For the same molecule, the DC50 [4] was 8 nM.

CS(=O)(=O)N1CCc2cccc(Nc3nc(Nc4ccc(N5CCC(N6CCN(C(=O)CCN7CCN(c8ccc9c(c8)C(=O)N(C8CCC(=O)NC8=O)C9=O)CC7)CC6)CC5)c(F)c4)nc4[nH]ccc34)c21 (stereo not drawn) [Example 15, 2-(2,6-dioxopiperidin-3-yl)-5-(4-(3-(4-(1-(2-fluoro-4-((4-((1-(methylsulfonyl)indolin-7-yl)amino)-7H-pyrrolo[2,3-d]pyrimidin-2-yl)amino)phenyl)piperidin-4-yl)piperazin-1-yl)-3-oxopropyl)piperazin-1-yl)isoindoline-1,3-dione] showed a DC50 [1] of 10 nM, a DC50 [2] of 9.2 nM and a DC50 [3] of 35.8 nM. It also gave a DC50 [4] of 68.3 nM.

Work on CS(=O)(=O)N1CCc2cccc(Nc3nc(Nc4ccc(N5CCC(N6CCN(CCC7CCN(c8cc(F)c(C9CCC(=O)NC9=O)c(F)c8)CC7)CC6)CC5)c(F)c4)nc4[nH]ccc34)c21 (stereo not drawn) [Example 67, 3-(2,6-difluoro-4-(4-(2-(4-(1-(2-fluoro-4-((4-((1-(methylsulfonyl)indolin-7-yl)amino)-7H-pyrrolo[2,3-d]pyrimidin-2-yl)amino)phenyl)piperidin-4-yl)piperazin-1-yl)ethyl)piperidin-1-yl)phenyl)piperidine-2,6-dione] yielded a DC50 [1] of 13.8 nM, a DC50 [2] of 3.5 nM and a DC50 [3] of 11.7 nM. It also gave a DC50 [4] of 15.7 nM.

In the case of CS(=O)(=O)N1CCc2cccc(Nc3nc(Nc4ccc(N5CCC(N6CCN(C(=O)[C@@H]7CCN(c8ccc9c(c8)C(=O)N(C8CCC(=O)NC8=O)C9=O)C7)CC6)CC5)c(F)c4)ncc3Cl)c21 (stereo partly drawn) [Example 83, 5-((R)-3-(4-(1-(4-((5-chloro-4-((1-(methylsulfonyl)indolin-7-yl)amino)pyrimidin-2-yl)amino)-2-fluorophenyl)piperidin-4-yl)piperazine-1-carbonyl)pyrrolidin-1-yl)-2-(2,6-dioxopiperidin-3-yl)isoindoline-1,3-dione], the DC50 [1] is reported as 3.2 nM, the DC50 [2] is reported as 3 nM and the DC50 [3] is reported as 5.9 nM. For the same molecule, the DC50 [4] was 14.6 nM.

COc1cc(N2CCC(N3CCN(CCC4CCN(c5ccc(C6CCC(=O)NC6=O)c(F)c5)CC4)CC3)CC2)ccc1Nc1ncc(Cl)c(Nc2cccc3c2N(S(C)(=O)=O)CC3)n1 (stereo not drawn) [Example 36, 3-(4-(4-(2-(4-(1-(4-((5-chloro-4-((1-(methylsulfonyl)indolin-7-yl)amino)pyrimidin-2-yl)amino)-3-methoxyphenyl)piperidin-4-yl)piperazin-1-yl)ethyl)piperidin-1-yl)-2-fluorophenyl)piperidine-2,6-dione] was tested, and the DC50 [1] was 15.5 nM, the DC50 [2] was 8.6 nM and the DC50 [3] was 26.3 nM. It also gave a DC50 [4] of 42.6 nM.

CS(=O)(=O)N1CCc2cccc(Nc3nc(Nc4ccc(N5CCC(N6CCN(CCc7cc(F)c(C8CCC(=O)NC8=O)c(F)c7)CC6)CC5)c(F)c4)nc4[nH]ccc34)c21 (stereo not drawn) [Example 68, 3-(2,6-difluoro-4-(2-(4-(1-(2-fluoro-4-((4-((1-(methylsulfonyl)indolin-7-yl)amino)-7H-pyrrolo[2,3-d]pyrimidin-2-yl)amino)phenyl)piperidin-4-yl)piperazin-1-yl)ethyl)phenyl)piperidine-2,6-dione] was tested, and the DC50 [1] was 3.7 nM, the DC50 [2] was 17.6 nM and the DC50 [3] was 3 nM. It also gave a DC50 [4] of 4.4 nM.

COc1cc(N2CCC(N3CCN(CCC4CCN(c5ccc6c(c5)C(=O)N(C5CCC(=O)NC5=O)C6=O)CC4)CC3)CC2)ccc1Nc1ncc(Cl)c(Nc2cccc3c2N(S(C)(=O)=O)CC3)n1 (stereo not drawn) [Example 37, 5-(4-(2-(4-(1-(4-((5-chloro-4-((1-(methylsulfonyl)indolin-7-yl)amino)pyrimidin-2-yl)amino)-3-methoxyphenyl)piperidin-4-yl)piperazin-1-yl)ethyl)piperidin-1-yl)-2-(2,6-dioxopiperidin-3-yl)isoindoline-1,3-dione] showed a DC50 [1] of 3.8 nM, a DC50 [2] of 3.5 nM and a DC50 [3] of 16.7 nM. For the same molecule, the DC50 [4] was 43.1 nM.

CS(=O)(=O)N1CCc2cccc(Nc3nc(Nc4ccc(N5CCC(N6CCN(CCc7ccc(C8CCC(=O)NC8=O)cc7)CC6)CC5)c(F)c4)ncc3Cl)c21 (stereo not drawn) [Example 45, 3-(4-(2-(4-(1-(4-((5-chloro-4-((1-(methylsulfonyl)indolin-7-yl)amino)pyrimidin-2-yl)amino)-2-fluorophenyl)piperidin-4-yl)piperazin-1-yl)ethyl)phenyl)piperidine-2,6-dione] was tested, and the DC50 [1] was 2.3 nM, the DC50 [2] was 6.7 nM and the DC50 [3] was 9.9 nM. The DC50 [4] was 17.3 nM.

With COc1cc(N2CCC(N3CCN(C[C@@H]4CCN(c5ccc6c(c5)CN(C5CCC(=O)NC5=O)C6=O)C4)CC3)CC2)c(C)cc1Nc1ncc(Br)c(Nc2cccc3c2N(S(C)(=O)=O)CC3)n1 (stereo partly drawn) [Example 154, 3-(5-((S)-3-((4-(1-(4-((5-bromo-4-((1-(methylsulfonyl)indolin-7-yl)amino)pyrimidin-2-yl)amino)-5-methoxy-2-methylphenyl)piperidin-4-yl)piperazin-1-yl)methyl)pyrrolidin-1-yl)-1-oxoisoindolin-2-yl)piperidine-2,6-dione] the DC50 [1] was 16 nM, the DC50 [2] was 6 nM and the DC50 [3] was 11 nM. The DC50 [4] was 13 nM.

In the case of COc1cc(N2CCC(N3CCN(C(=O)[C@@H]4CCN(c5ccc6c(c5)C(=O)N(C5CCC(=O)NC5=O)C6=O)C4)CC3)CC2)ccc1Nc1ncc(Cl)c(Nc2cccc3c2N(S(C)(=O)=O)CC3)n1 (stereo partly drawn) [Example 88, 5-((R)-3-(4-(1-(4-((5-chloro-4-((1-(methylsulfonyl)indolin-7-yl)amino)pyrimidin-2-yl)amino)-3-methoxyphenyl)piperidin-4-yl)piperazine-1-carbonyl)pyrrolidin-1-yl)-2-(2,6-dioxopiperidin-3-yl)isoindoline-1,3-dione], the DC50 [1] is reported as 4.2 nM, the DC50 [2] is reported as 2.7 nM and the DC50 [3] is reported as 15.6 nM. For the same molecule, the DC50 [4] was 43.3 nM.

Molecule CS(=O)(=O)N1CCc2cccc(Nc3nc(Nc4ccc(N5CCC(N6CCN(CCC7CCN(c8ccc(C9CCC(=O)NC9=O)cc8)CC7)CC6)CC5)c(F)c4)nc4[nH]ccc34)c21 (stereo not drawn) [Example 8, 3-(4-(4-(2-(4-(1-(2-fluoro-4-((4-((1-(methylsulfonyl)indolin-7-yl)amino)-7H-pyrrolo[2,3-d]pyrimidin-2-yl)amino)phenyl)piperidin-4-yl)piperazin-1-yl)ethyl)piperidin-1-yl)phenyl)piperidine-2,6-dione] has a DC50 [1] of 9.1 nM, a DC50 [2] of 12.7 nM and a DC50 [3] of 13.4 nM. The DC50 [4] was 8.4 nM.

COc1cc(N2CCC(N3CCN(C[C@H]4CCN(c5ccc6c(c5)CN(C5CCC(=O)NC5=O)C6=O)C4)CC3)CC2)c(C)cc1Nc1ncc(Br)c(Nc2cccc3c2N(S(C)(=O)=O)CC3)n1 (stereo partly drawn) [Example 168, 3-(5-((R)-3-((4-(1-(4-((5-bromo-4-((1-(methylsulfonyl)indolin-7-yl)amino)pyrimidin-2-yl)amino)-5-methoxy-2-methylphenyl)piperidin-4-yl)piperazin-1-yl)methyl)pyrrolidin-1-yl)-1-oxoisoindolin-2-yl)piperidine-2,6-dione] was tested, and the DC50 [1] was 7 nM, the DC50 [2] was 2 nM and the DC50 [3] was 14 nM. It also gave a DC50 [4] of 25 nM.
